{"source": "patent US20140341922A1", "about": "“Method for Overcoming Tolerance to Targeted Anti-Cancer Agent” (SUN R&DB Foundation, priority 2011, published 2014)", "key": {"[1]": {"test_system": "integrin β3/Src signaling", "test": "Western blot after integrin β3 or Src blockade", "format": "cell-based, human", "design": "p-EGFR, p-Src, and p-Akt levels: dose or concentration left out as unconfirmed", "method": "Specifically, cixutumumab-resistant cells (LN686 and FADU) and cixutumumab-sensitive cells (OSC19) grown in PCPs were treated with B3A […] or PP2 […] for 1 hour prior to activation with IGF-1 (100 ng/ml).\nIn addition, the LN686 and FADU cells grown in the PCPs were untreated or treated with cixutumumab ([…]), PP2 (10 μM), an anti-integrin β1 monoclonal antibody (A11B2, 10 μg/ml), Ad-EV or Ad-CSK (10 pfu/cell) for 7 days prior to stimulation with IGF-1 (100 ng/ml, 30 min), and to detect the proteins, western blot analysis was performed."}, "[2]": {"test_system": "LN686, FADU, H226B, OSC19, and UMSCC38 cells", "test": "MTS cell proliferation, combined treatment in PCPs", "format": "cell-based, human", "conditions": "7 days", "method": "Cells were cultured in 96-well poly(poly-2-hydroxyethyl methacrylate [HEMA])-coated plates (PCPs) or ultra-low attached plates (UAPs). Control IgG1 (25 μg/ml), cixutumumab (25 μg/ml), PP2 (10 μM), and an integrin β3 neutralizing antibody B3A (10 μg/ml) were diluted in culture media containing 10% FBS or IGF-1 and treated alone or in combination. To examine the effect on cancer cell proliferation, a 3-(4,5-dimethylthiazol-2-yl)-2,5-diphenyltetrazolium bromide (MTT) or 3-(4,5-dimethylthiazol-2-yl)-5-(3-carboxymethoxyphenyl)-2-(4-sulfophenyl)-2H-tetrazolium (MTS) assay was performed, and to evaluate the effect on anchorage-independent colony formation, a soft agar colony formation assay was performed according to a method in our previous report (Morgillo et al., 2006).\nIn addition, the LN686, FADU, H226B, OSC19, and UMSCC38 cells grown in PCPs were untreated or treated with cixutumumab (25 μg/ml), anti-integrin β3 mAb (αβ3, 10 μg/ml), PP2 (10 μM), or a combination thereof for 7 days. Each bar represents the mean±SD of 6 wells treated with the same sample in one representative experiment."}}}
{"compound": "CC(C)(C)n1nc(-c2ccc(Cl)cc2)c2c(N)ncnc21", "note": "[PP2]", "values": [{"measurement": "p-EGFR, p-Src, and p-Akt levels", "setting": "[1]; LN686, FADU and OSC19, 6 h", "result": "marked decreases"}, {"measurement": "cixutumumab-induced increases in p-Src, p-FAK, p-EGFR, p-Akt, and p-mTOR", "setting": "[1]; LN686 or FaDu cells, integrin β3 mAb 100 μg/ml or PP2 10 μM", "result": "almost completely blocked"}, {"measurement": "antiproliferative activities of cixutumumab on combined treatment", "setting": "[2]; cixutumumab-resistant cells (LN686, FADU, H226B)", "result": "significantly augmented"}, {"measurement": "antiproliferative activities of cixutumumab on combined treatment", "setting": "[2]; cixutumumab-sensitive cells (OSC19 and UMSCC38)", "result": "not"}]}
